Test results as given in PubChem BioAssay (NCI).
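Cells were grown in 96-well plates and exposed to each compound for 48 hours at five concentrations; endpoints were interpolated linearly between bracketing concentrations, or set to the highest concentration if not reached. GI50: concentration for 50% inhibition of growth. Definition used: TGI = concentration required for complete inhibition of growth.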

Columns and labels:
Assay in all cases: inhibition of tumour cell growth, NCI panel, 48 h
DU-145 prostate = system: DU-145 prostate
HT29 colon = system: HT29 colon
K-562 leukemia = system: K-562 leukemia
KM12 colon = system: KM12 colon
NCI-H226 lung = system: NCI-H226 lung
NCI-H522 lung = system: NCI-H522 lung
SF-268 CNS = system: SF-268 CNS
SNB-75 CNS = system: SNB-75 CNS
MDA-N = system: MDA-N

## CCOC(=O)NC(=S)N(CC(=O)c1cc(OC)c(OC)c(OC)c1)c1ccc(Cl)cc1
DU-145 prostate
  GI50: 79.1 µM
  TGI: > 100 µM
HT29 colon
  GI50: > 100 µM
  TGI: > 100 µM
K-562 leukemia
  GI50: 51.8 µM
  TGI: > 100 µM
KM12 colon
  GI50: > 100 µM
  TGI: > 100 µM
NCI-H226 lung
  GI50: > 100 µM
  TGI: > 100 µM
NCI-H522 lung
  GI50: 27.9 µM
  TGI: > 100 µM
SF-268 CNS
  GI50: > 100 µM
  TGI: > 100 µM
SNB-75 CNS
  GI50: 34.1 µM
  TGI: > 100 µM

## COC(=N)C1(C#N)NC(c2ccsc2)C(C#N)(C#N)NC1c1ccsc1 (configuration not stated)
DU-145 prostate
  TGI: > 100 µM
HT29 colon
  TGI: > 100 µM
K-562 leukemia
  TGI: > 100 µM
KM12 colon
  TGI: > 100 µM
MDA-N
  TGI: > 100 µM
NCI-H226 lung
  TGI: > 100 µM
NCI-H522 lung
  TGI: > 100 µM
SF-268 CNS
  TGI: > 100 µM
SNB-75 CNS
  TGI: > 100 µM

## CCC1(c2ccc(N3C(=O)c4cccc5cc([N+](=O)[O-])cc(c45)C3=O)cc2)CCC(=O)NC1=O (configuration not stated)
DU-145 prostate
  TGI: > 69.2 µM
HT29 colon
  TGI: > 100 µM
K-562 leukemia
  TGI: > 100 µM
KM12 colon
  TGI: > 100 µM
NCI-H226 lung
  TGI: 29 µM
NCI-H522 lung
  TGI: 35.1 µM
SF-268 CNS
  TGI: 51.8 µM
SNB-75 CNS
  TGI: 68 µM

## COc1cc2c(cc1O)C1Cc3ccc(OC)c(O)c3C[N+]1(C)CC2 (configuration not stated)
DU-145 prostate
  TGI: > 100 µM
HT29 colon
  TGI: > 100 µM
K-562 leukemia
  TGI: > 100 µM
KM12 colon
  TGI: > 100 µM
MDA-N
  TGI: > 100 µM
NCI-H226 lung
  TGI: > 100 µM
SF-268 CNS
  TGI: > 100 µM
SNB-75 CNS
  TGI: > 100 µM

## O=C(O)C(Cc1ccccc1)NCc1c(O)ccc2c(-c3ccccc3)cc(=O)oc12 (configuration not stated)
DU-145 prostate
  TGI: > 100 µM
HT29 colon
  TGI: > 100 µM
K-562 leukemia
  TGI: > 100 µM
KM12 colon
  TGI: > 100 µM
MDA-N
  TGI: > 100 µM
NCI-H226 lung
  TGI: > 100 µM
NCI-H522 lung
  TGI: > 100 µM
SF-268 CNS
  TGI: > 100 µM
SNB-75 CNS
  TGI: > 100 µM

## CC(C)(C)C(=O)Nc1c(C=O)ccc2[nH]cnc12
K-562 leukemia
  TGI: > 100 µM
KM12 colon
  TGI: > 100 µM
MDA-N
  TGI: > 100 µM
NCI-H226 lung
  TGI: > 100 µM
NCI-H522 lung
  TGI: > 100 µM
SF-268 CNS
  TGI: > 100 µM
SNB-75 CNS
  TGI: > 100 µM

## COc1cc2c(/C=C3/C(=O)Nc4ccccc43)c(Cl)n(Cc3ccc(Cl)cc3)c2cc1C
DU-145 prostate
  TGI: 1.07 µM
KM12 colon
  TGI: 1.02 µM
NCI-H226 lung
  TGI: 1.79 µM
NCI-H522 lung
  TGI: 2.06 µM
SF-268 CNS
  TGI: 21.3 µM
SNB-75 CNS
  TGI: 0.898 µM

## N#Cc1c(NC(=S)Nc2ccc(Cl)cc2)sc2c1CCN(N1CCc3c(sc(NC(=S)Nc4ccc(Cl)cc4)c3C#N)C1)C2
DU-145 prostate
  TGI: > 100 µM
HT29 colon
  TGI: 26.5 µM
K-562 leukemia
  TGI: > 100 µM
KM12 colon
  TGI: > 100 µM
MDA-N
  TGI: > 100 µM
NCI-H226 lung
  TGI: 34.4 µM
NCI-H522 lung
  TGI: > 100 µM
SF-268 CNS
  TGI: > 100 µM
SNB-75 CNS
  TGI: > 100 µM

## CCOC(=O)c1c(-c2ccc(OC)cc2)ccn1C
DU-145 prostate
  TGI: > 10 µM
HT29 colon
  TGI: > 10 µM
K-562 leukemia
  TGI: > 10 µM
KM12 colon
  TGI: > 10 µM
NCI-H226 lung
  TGI: > 10 µM
NCI-H522 lung
  TGI: > 10 µM
SF-268 CNS
  TGI: > 10 µM
SNB-75 CNS
  TGI: > 10 µM

## CC(O)c1nc(C#N)c(N)o1 (configuration not stated)
DU-145 prostate
  TGI: > 100 µM
HT29 colon
  TGI: > 100 µM
K-562 leukemia
  TGI: > 100 µM
KM12 colon
  TGI: > 100 µM
MDA-N
  TGI: > 100 µM
NCI-H226 lung
  TGI: > 100 µM
NCI-H522 lung
  TGI: > 100 µM
SF-268 CNS
  TGI: > 100 µM
SNB-75 CNS
  TGI: > 100 µM

## COC(=O)c1c2c(cc3c1CC1(Cc4cc5c(c(C=O)c4C1)CCC5)C3)CCC2 (configuration not stated)
DU-145 prostate
  TGI: > 100 µM
HT29 colon
  TGI: 79.2 µM
K-562 leukemia
  TGI: > 100 µM
MDA-N
  TGI: > 100 µM
NCI-H522 lung
  TGI: 56.6 µM
SF-268 CNS
  TGI: > 100 µM
SNB-75 CNS
  TGI: > 100 µM

## COC(=O)C1=C(CCCCO[Si](C)(C)C(C)(C)C)NC(=O)N2[C@H](CCOCc3ccccc3)CC[C@@H]12
DU-145 prostate
  TGI: > 100 µM
K-562 leukemia
  TGI: > 100 µM
KM12 colon
  TGI: > 100 µM
MDA-N
  TGI: > 100 µM
NCI-H226 lung
  TGI: > 100 µM
NCI-H522 lung
  TGI: > 100 µM
SF-268 CNS
  TGI: > 100 µM
SNB-75 CNS
  TGI: > 100 µM

## O=C(O)c1c(CC(Cc2ccc3c(c2)CCC3)C(=O)O)ccc2c1CCC2 (configuration not stated)
DU-145 prostate
  TGI: > 100 µM
HT29 colon
  TGI: > 100 µM
K-562 leukemia
  TGI: > 100 µM
KM12 colon
  TGI: > 100 µM
MDA-N
  TGI: > 100 µM
NCI-H226 lung
  TGI: > 100 µM
NCI-H522 lung
  TGI: > 100 µM

## Cc1cn(CCCCCCOC(=O)NC(CCCNC(N)=O)C(=O)O)c(=O)[nH]c1=O (configuration not stated)
DU-145 prostate
  TGI: > 100 µM
HT29 colon
  TGI: > 100 µM
K-562 leukemia
  TGI: > 100 µM
KM12 colon
  TGI: > 100 µM
MDA-N
  TGI: > 100 µM
NCI-H226 lung
  TGI: > 100 µM
SF-268 CNS
  TGI: > 100 µM
SNB-75 CNS
  TGI: > 100 µM

## COc1ccc(-c2ccc(C(=O)C=P(c3ccccc3)(c3ccccc3)c3ccccc3)cc2)cc1
DU-145 prostate
  TGI: 39.4 µM
HT29 colon
  TGI: 19.4 µM
K-562 leukemia
  TGI: 20.6 µM
KM12 colon
  TGI: 36.6 µM
MDA-N
  TGI: 28.9 µM
NCI-H226 lung
  TGI: 27.7 µM
SF-268 CNS
  TGI: 71.4 µM

## CCCCCC[C@H]([C@H](C)O)n1cnc2c(N)ncnc21
DU-145 prostate
  TGI: > 100 µM
HT29 colon
  TGI: > 100 µM
K-562 leukemia
  TGI: > 100 µM
KM12 colon
  TGI: > 100 µM
MDA-N
  TGI: > 100 µM
NCI-H226 lung
  TGI: > 100 µM
SF-268 CNS
  TGI: > 100 µM
SNB-75 CNS
  TGI: > 100 µM

## C/C(=C1\N=C(c2ccccc2)OC1=O)c1ccccc1
DU-145 prostate
  TGI: > 100 µM
HT29 colon
  TGI: > 100 µM
K-562 leukemia
  TGI: > 100 µM
KM12 colon
  TGI: > 100 µM
NCI-H226 lung
  TGI: > 100 µM
NCI-H522 lung
  TGI: > 100 µM
SF-268 CNS
  TGI: > 100 µM
SNB-75 CNS
  TGI: > 100 µM
